Measured values: the NIST ThermoML archive (doi:10.1016/j.tca.2013.06.031)

Test: mn = molality of the nth substance listed, in mol/kg
Conditions: 101 kPa, Liquid; for viscosity: Capillary tube (Ostwald / Ubbelohde) method; for mass density: Vibrating tube method

CO/N=C(\C(=O)N[C@@H]1C(=O)N2C(C(=O)[O-])=C(CSc3nc(C)c(CC(=O)[O-])s3)CS[C@H]12)c1csc(N)n1.[Na+].[Na+] + O
Conditions	mass density [kg/m3]	viscosity [mPa·s]
278.15 K, m1 = 0.01	1002.35	1.551
278.15 K, m1 = 0.03	1006.68	1.609
278.15 K, m1 = 0.05	1010.63	1.667
278.15 K, m1 = 0.07	1014.39	1.724
278.15 K, m1 = 0.09	1018.03	1.783
278.15 K, m1 = 0.11	1021.6	1.839
278.15 K, m1 = 0.13	1025.13	1.9
278.15 K, m1 = 0.15	1028.54	1.962
283.15 K, m1 = 0.01	1002.07	1.33
283.15 K, m1 = 0.03	1006.36	1.381
283.15 K, m1 = 0.05	1010.27	1.431
283.15 K, m1 = 0.07	1014	1.479
283.15 K, m1 = 0.09	1017.61	1.529
283.15 K, m1 = 0.11	1021.14	1.577
283.15 K, m1 = 0.13	1024.59	1.63
283.15 K, m1 = 0.15	1027.97	1.682
288.15 K, m1 = 0.01	1001.45	1.153
288.15 K, m1 = 0.03	1005.68	1.197
288.15 K, m1 = 0.05	1009.58	1.24
288.15 K, m1 = 0.07	1013.27	1.282
288.15 K, m1 = 0.09	1016.85	1.326
288.15 K, m1 = 0.11	1020.33	1.367
288.15 K, m1 = 0.13	1023.74	1.413
288.15 K, m1 = 0.15	1027.06	1.458
293.15 K, m1 = 0.01	1000.53	1.016
293.15 K, m1 = 0.03	1004.71	1.055
293.15 K, m1 = 0.05	1008.6	1.094
293.15 K, m1 = 0.07	1012.24	1.13
293.15 K, m1 = 0.09	1015.8	1.169
293.15 K, m1 = 0.11	1019.24	1.206
293.15 K, m1 = 0.13	1022.59	1.246
293.15 K, m1 = 0.15	1025.89	1.285
298.15 K, m1 = 0.01	999.36	0.9017
298.15 K, m1 = 0.03	1003.52	0.9359
298.15 K, m1 = 0.05	1007.36	0.9694
298.15 K, m1 = 0.07	1010.99	1.002
298.15 K, m1 = 0.09	1014.51	1.036
298.15 K, m1 = 0.11	1017.91	1.069
298.15 K, m1 = 0.13	1021.27	1.104
298.15 K, m1 = 0.15	1024.52	1.14
303.15 K, m1 = 0.01	997.94	0.8062
303.15 K, m1 = 0.03	1002.05	0.8369
303.15 K, m1 = 0.05	1005.88	0.8669
303.15 K, m1 = 0.07	1009.48	0.8964
303.15 K, m1 = 0.09	1012.96	0.9263
303.15 K, m1 = 0.11	1016.34	0.9559
303.15 K, m1 = 0.13	1019.64	0.9862
303.15 K, m1 = 0.15	1022.89	1.019
308.15 K, m1 = 0.01	996.31	0.7252
308.15 K, m1 = 0.03	1000.43	0.7532
308.15 K, m1 = 0.05	1004.18	0.7799
308.15 K, m1 = 0.07	1007.75	0.8066
308.15 K, m1 = 0.09	1011.2	0.8336
308.15 K, m1 = 0.11	1014.55	0.8594
308.15 K, m1 = 0.13	1017.85	0.8867
308.15 K, m1 = 0.15	1021.04	0.9172
313.15 K, m1 = 0.01	994.47	0.6576
313.15 K, m1 = 0.03	998.57	0.682
313.15 K, m1 = 0.05	1002.27	0.707
313.15 K, m1 = 0.07	1005.83	0.7314
313.15 K, m1 = 0.09	1009.24	0.7559
313.15 K, m1 = 0.11	1012.57	0.7783
313.15 K, m1 = 0.13	1015.83	0.8042
313.15 K, m1 = 0.15	1018.99	0.8303
